{"source": "patent US20110257204A1", "about": "“Penciclovir or Famciclovir for Treatment of Recurrent Genital Herpes with a One-Day Application” (priority 2005, published 2011)", "key": {"[1]": {"tested_on": "recurrent genital herpes lesions", "format": "in vivo, human", "conditions": "for Time to healing of all lesions (median) / Proportion of aborted lesions: ITT; for Time to healing of all lesions (median): aborted lesions assigned time to healing of zero; for Time to healing of all lesions (median) / Proportion of aborted lesions / Time to healing of non-aborted lesions (median): famciclovir 1,000 mg b.i.d. for one day; for Hazard ratio, time to healing of non-aborted lesions: famciclovir 1,000 mg b.i.d. one day vs placebo", "method": "The multi-center, multi-country, randomized, double-blind parallel-group, placebo controlled study is conducted to assess the efficacy and safety of a patient-initiated one-day treatment with famciclovir ([…]) 1,000 mg, twice a day, in patients with recurrent genital herpes. Approximately 450 eligible patients are randomized in a 1:1 ratio to receive either famciclovir (1,000 mg, twice a day) or matching placebo for one day. Patients are instructed to obtain a viral sample and initiate treatment within six hours of prodrome and/or recurrence of genital herpes lesions. All patients are required to return for clinic visits for observation of lesions on Days 2 and 3. Patients with lesions will continue with clinic visits on Days 4 and 5, then every other day until it is deemed that lesion healing has occurred however not to exceed Day 14. The following Table 1 represents the study design. Each patient receives either Famciclovir 2,000 mg [1,000 mg (4×250 mg capsules)] orally or placebo (4×250 mg matching placebo capsules) orally twice in one day. Study medication is to be administered twice in one day (during normal waking hours). One-day equals to 24 hours, if the patent starts a first dose in the PM the second should be taken upon waking in the AM. The first dose is taken within six hours of prodrome and/or genital herpes lesion occurrence. Within 6 hours of recurrence of either genital herpes symptom onset and/or lesion and prior to initiating therapy, patients obtain a viral sample for PCR at Visit 1. The sample is brought to the clinic at Visit 2. Patients maintain a diary to assess and record appearance/stage and location of lesion. From Visit 2 onwards, physicals are performed by clinician who examines genitalia for herpes lesions. Patients with lesions will continue with clinic visit on Days 4 (Visit 5) and 5 (Visit 6) then every other day until clinician investigator deems that the lesion healing has occurred however not to exceed Day 14. Should patients only experience symptoms, without onset of herpes lesion, these patients will return for clinic visits until resolution of symptoms. The primary efficacy variable refers to the investigator-assessed time to healing (re-epithelization, erythema may be present) of all non-aborted genital herpes lesions from the time of the first dose of study medication. Non-aborted lesions refer to all lesions requiring re-epithelization: lesions which undergo vesicular, ulcer/soft crust, hard crust formation. […] Primary efficacy variable is analyzed using the proportional hazards model, with treatment, gender and study center as explanatory variables, for patients over the modified ITT population. The Efron approximate likelihood method is used for resolution of ties. The 95% confidence intervals for the hazard ratio and median times to healing is calculated. The time to healing based on investigator-assessment (with aborted lesions assigned a time of zero) is analyzed on the PCR-positive and the ITT populations. A proportional hazards model is used in analysis, with treatment, gender, and study center as explanatory variables. The Efron approximate likelihood method is used for resolution of ties. A 95% confidence interval for the hazard ratio and median times to healing is calculated. Covariates and interactions listed for the primary efficacy variable are assessed separately by adding their terms into the proportional hazards model. The time to resolution of each symptom, as well as the time to resolution of all symptoms, will be analyzed using a proportional hazards model with treatment, gender, and study center as explanatory variables, over the ITT population. The proportion of patients reporting each symptom is presented descriptively, and compared between treatments using the Chochran-Mantel-Haenszel 9CHM) test, stratified by gender and study center, over the ITT population. […]"}, "[2]": {"conditions": "regardless of the dose given; cited from earlier work"}, "[3]": {"tested_on": "recurrent genital herpes lesions", "conditions": "previous trial; clinic-initiated treatment, low dose 125 mg twice a day for five days; cited from earlier work"}, "[4]": {"conditions": "patients receiving famciclovir in earlier studies; cited from earlier work"}}, "note": "Read-outs that look alike come from different tables or passages of the source."}
{"smiles": "CC(=O)OCC(CCn1cnc2cnc(N)nc21)COC(C)=O", "note": "[famciclovir, 9-(4-acetoxy-3-acetoxymethylbut-1-yl)-2-aminopurine]", "values": [{"measurement": "Time to healing of all lesions (median)", "setting": "[1]", "value": 3.5, "unit": "days"}, {"measurement": "Time to healing of all lesions (median)", "setting": "[1]; listed as Famciclovir", "value": 4.3, "unit": "days"}, {"measurement": "Proportion of aborted lesions", "setting": "[1]", "value": 23.3, "unit": "%"}, {"measurement": "Proportion of aborted lesions", "setting": "[1]; listed as Famciclovir", "value": 23.3, "unit": "%"}, {"measurement": "Time to healing of non-aborted lesions (median)", "setting": "[1]; Modified ITT, oral, patient-initiated within 6 hours", "value": 4.3, "unit": "days"}, {"measurement": "Hazard ratio, time to healing of non-aborted lesions", "setting": "[1]; Modified ITT, proportional hazards model", "value": 1.64}, {"measurement": "Time to healing of non-aborted lesions (median)", "setting": "[1]; Per Protocol", "value": 4.3, "unit": "days"}, {"measurement": "Hazard ratio, time to healing of non-aborted lesions", "setting": "[1]; Per Protocol", "value": 1.72}, {"measurement": "Reduction of median time to healing of recurrent genital herpes lesions compared to placebo", "setting": "[1]; famciclovir 1,000 mg twice a day, one day, immunocompetent patients, non-aborted lesions", "value": "two"}, {"measurement": "Bioavailability", "setting": "[2]", "value": 77, "unit": "%"}, {"measurement": "Hazard ratio between famciclovir and placebo for time to healing", "setting": "[3]", "value": 1.48}, {"measurement": "Most commonly reported adverse events", "setting": "[4]", "value": "headache and nausea"}]}
